Eleven compounds from publication PMC3486884 (PLoS Pathogens, 2012) can be followed below.

Assay [1] concerns HRV1A.
Assay [2] deals with HRV1A. As to the kind of experiment: microbe, parasite or virus in culture. Particulars: Human rhinovirus sp., M-HeLa, 7 h; for activity at 0.03 µM: read-out: HRV1A infection (dsRNA), 0.03 µM; for activity at 0.1 µM: read-out: HRV1A infection (dsRNA), 0.10 µM; for activity at 0.31 µM: read-out: HRV1A infection (dsRNA), 0.31 µM; for activity at 0.93 µM: read-out: HRV1A infection (dsRNA), 0.93 µM; for activity at 2.78 µM: read-out: HRV1A infection (dsRNA), 2.78 µM; for activity at 8.33 µM: read-out: HRV1A infection (dsRNA), 8.33 µM; for activity at 25 µM: read-out: HRV1A infection (dsRNA), 25.00 µM.

Each structure is given as a SMILES string.

On to `COc1ccccc1C(=O)Nc1ccc(C(F)(F)F)cc1Cl` [TVB-1323], for which, in the assay on HRV1A [1], the “antiviral activity against HRV1A (structure-activity study, in words)” value (from here on “antiviral activity against HRV1A”) is “reduced antiviral efficacy”. Further, in the assay with HRV1A [2], the activity at 0.03 µM came to 101%, the activity at 0.1 µM worked out at 95%, the activity at 0.31 µM is 97% and the activity at 0.93 µM amounted to 97%. Further, in the assay on HRV1A [2], the activity at 2.78 µM was determined as 106%, the activity at 8.33 µM came to 108% and the activity at 25 µM is 113%.

Consider `COc1c(C)cccc1C(=O)Nc1ccc([N+](=O)[O-])cc1Cl` [TVB-1324], for which the “antiviral activity against HRV1A” value in the assay with HRV1A [1] is listed as “eliminated antiviral activity”. For the same compound, in the assay with HRV1A [2], the activity at 0.03 µM is 104%, the activity at 0.1 µM turned out to be 105%, the activity at 0.31 µM was 98% and the activity at 0.93 µM amounted to 99%. Further, in the assay on HRV1A [2], the activity at 2.78 µM is 88%, the activity at 8.33 µM was 94% and the activity at 25 µM amounted to 107%.

In the case of `COC(=O)c1ccc(Cl)c(NC(=O)c2ccccc2OC)c1` [TVB-1325], the “antiviral activity against HRV1A” value with HRV1A [1] is “reduced antiviral efficacy”. In the assay on HRV1A [2], the activity at 0.03 µM stood at 91%, the activity at 0.1 µM stood at 97%, the activity at 0.31 µM turned out to be 86% and the activity at 0.93 µM turned out to be 95%. In addition, in the assay with HRV1A [2], the activity at 2.78 µM stood at 83%, the activity at 8.33 µM stood at 73% and the activity at 25 µM is 80%.

Consider `CCC(=O)Nc1ccc(Cl)c(NC(=O)c2ccccc2OC)c1` [TVB-1327], for which the “antiviral activity against HRV1A” value in the assay on HRV1A [1] is recorded as “reduced antiviral efficacy”. In the assay on HRV1A [2], the activity at 0.03 µM was 118%, the activity at 0.1 µM was found to be 118%, the activity at 0.31 µM came out at 110% and the activity at 0.93 µM stood at 107%. Also, in the assay on HRV1A [2], the activity at 2.78 µM stood at 96%, the activity at 8.33 µM worked out at 107% and the activity at 25 µM is 115%.

Consider `CCOc1ccccc1C(=O)Nc1ccc([N+](=O)[O-])cc1Cl` [TVB-1328], for which the “antiviral activity against HRV1A” value in the assay on HRV1A [1] is “eliminated antiviral activity”. Also, in the assay on HRV1A [2], the activity at 0.03 µM came out at 99%, the activity at 0.1 µM amounted to 90%, the activity at 0.31 µM stood at 86% and the activity at 0.93 µM was determined as 89%. Besides, in the assay with HRV1A [2], the activity at 2.78 µM is 90%, the activity at 8.33 µM was 95% and the activity at 25 µM came to 107%.

Take `COc1ccc(Cl)cc1C(=O)Nc1cc([N+](=O)[O-])ccc1Cl` [TVB-1330]: in the assay on HRV1A [1], the “antiviral activity against HRV1A” value is on record as “reduced antiviral efficacy”. Besides, in the assay with HRV1A [2], the activity at 0.03 µM stood at 101%, the activity at 0.1 µM turned out to be 103%, the activity at 0.31 µM was 99% and the activity at 0.93 µM turned out to be 97%. In the assay on HRV1A [2], the activity at 2.78 µM was determined as 101%, the activity at 8.33 µM was 105% and the activity at 25 µM came out at 111%.

As for `CCOc1ccccc1C(=O)Nc1ccc(Cl)cc1Cl` [TVB-1331], the “antiviral activity against HRV1A” value in the assay on HRV1A [1] is listed as “eliminated antiviral activity”. In the assay on HRV1A [2], the activity at 0.03 µM was 119%, the activity at 0.1 µM came to 118%, the activity at 0.31 µM is 112% and the activity at 0.93 µM amounted to 107%. In the assay with HRV1A [2], the activity at 2.78 µM came out at 108%, the activity at 8.33 µM was 106% and the activity at 25 µM stood at 113%.

Consider `COc1ccccc1C(=O)Nc1ccc([N+](=O)[O-])cc1Cl` [TVB-1333], for which the “antiviral activity against HRV1A” value with HRV1A [1] is “eliminated antiviral activity”. In addition, in the assay on HRV1A [2], the activity at 0.03 µM was determined as 112%, the activity at 0.1 µM is 99%, the activity at 0.31 µM amounted to 107% and the activity at 0.93 µM came out at 92%. Further, in the assay with HRV1A [2], the activity at 2.78 µM was found to be 84%, the activity at 8.33 µM worked out at 157% and the activity at 25 µM was found to be 207%.

`Nc1ccc(NC(=O)c2cc(Cl)ccc2O)c(Cl)c1` [TVB-1335]: the “antiviral activity against HRV1A” value with HRV1A [1] is reported as “eliminated antiviral activity”. In the assay with HRV1A [2], the activity at 0.03 µM amounted to 109%, the activity at 0.1 µM is 102%, the activity at 0.31 µM was 103% and the activity at 0.93 µM is 105%. In the assay on HRV1A [2], the activity at 2.78 µM is 98%, the activity at 8.33 µM worked out at 96% and the activity at 25 µM was found to be 104%.

As for `O=C(Nc1ccc(NS(=O)(=O)c2ccccc2)cc1Cl)c1cc(Cl)ccc1O` [TVB-1336], the “antiviral activity against HRV1A” value with HRV1A [1] is given as “eliminated antiviral activity”. Besides, in the assay on HRV1A [2], the activity at 0.03 µM amounted to 102%, the activity at 0.1 µM came to 97%, the activity at 0.31 µM stood at 105% and the activity at 0.93 µM came to 105%. Further, in the assay with HRV1A [2], the activity at 2.78 µM was determined as 104%, the activity at 8.33 µM was 105% and the activity at 25 µM is 103%.

With `COc1ccc(Br)cc1C(=O)Nc1cc([N+](=O)[O-])ccc1Cl` [TVB-1337], in the assay on HRV1A [1], the “antiviral activity against HRV1A” value was “reduced antiviral efficacy”. Further, in the assay with HRV1A [2], the activity at 0.03 µM worked out at 112%, the activity at 0.1 µM was found to be 104%, the activity at 0.31 µM was found to be 107% and the activity at 0.93 µM stood at 104%. In addition, in the assay with HRV1A [2], the activity at 2.78 µM was 105%, the activity at 8.33 µM was found to be 111% and the activity at 25 µM was 117%.
